ChEMBL document CHEMBL3297689, “Phenylalanine-Based Inactivator of AKT Kinase: Design, Synthesis, and Biological Evaluation” (ACS Med Chem Lett, 2014)
Blank lines part the entries; values can stand above or below the molecule they belong to. Active and inactive are the calls of the source. The calls are words filed in the database; no cut-off is given here. Where a SMILES comes first, the peptide text is derived from it. [ ]: non-standard residue; d: D form. NMeV = CN[C@H](C(=O)O)C(C)C; GABA = NCCCC(=O)O

Assays:
[1] = biological target: T1, RAC-alpha serine/threonine-protein kinase (Homo sapiens, UniProt P31749); assay: Inhibition of AKT1 (unknown origin) after 1 hr by Z'-LYTE kinase assay in presence of 75 uM ATP
T1 sequence (P31749 whole entry): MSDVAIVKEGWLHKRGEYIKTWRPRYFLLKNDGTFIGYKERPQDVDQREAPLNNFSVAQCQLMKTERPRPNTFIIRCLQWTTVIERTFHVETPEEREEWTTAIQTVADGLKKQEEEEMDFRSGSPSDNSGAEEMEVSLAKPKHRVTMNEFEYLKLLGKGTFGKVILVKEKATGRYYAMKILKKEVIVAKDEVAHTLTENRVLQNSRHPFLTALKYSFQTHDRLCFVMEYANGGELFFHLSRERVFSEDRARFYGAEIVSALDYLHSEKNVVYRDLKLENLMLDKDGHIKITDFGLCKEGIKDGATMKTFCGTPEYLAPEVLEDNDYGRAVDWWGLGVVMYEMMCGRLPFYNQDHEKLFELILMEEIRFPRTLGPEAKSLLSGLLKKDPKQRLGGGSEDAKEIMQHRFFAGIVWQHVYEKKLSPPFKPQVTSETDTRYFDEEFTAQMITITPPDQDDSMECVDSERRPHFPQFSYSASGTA

[2] = biological target: T1, RAC-alpha serine/threonine-protein kinase; assay: Inhibition of AKT1 (unknown origin) after 30 mins by scintillation counting analysis in presence of 100 uM ATP
NCI-H460 = assay: Growth inhibition of human NCI-H460 cells after 72 hrs by coulter counter method; format: functional, cell-based; settings: NCI-H460, 72 h
[3] = Growth inhibition of human HCT116 cells after 72 hrs by coulter counter method; format: functional, cell-based; settings: HCT-116, 72 h
[4] = biological target: T1, RAC-alpha serine/threonine-protein kinase; assay: Binding affinity to AKT1 (unknown origin) assessed as covalent modification at Cys310 residue by mass spectrometry

IC50 [1]: > 100 µM
SMILES: C=CC(=O)N(Cc1ccccc1)NC(=O)OC(C)(C)C

IC50 [1]: > 100 µM
SMILES: CC(C)(C)OC(=O)N[C@@H](Cc1ccccc1)C(=O)NCCCl

IC50 [2]: 0.2 µM
SMILES: COC[C@H](NC(=O)[C@H](Cc1ccc(O)cc1)NC(=O)[C@H](C(C)C)N(C)C(=O)[C@H](CCCNC(=N)N)NC(=O)[C@@H]1CCCN1C(=O)[C@@H](N)CCCNC(=N)N)C(=O)NCCCC(=O)O (H-RPR[NMeV]YS(Me)[GABA]-OH)

SMILES: NC1(c2ccc(-c3nc4ccn5c(=O)[nH]nc5c4cc3-c3ccccc3)cc2)CCC1 [MK-2206]
IC50 (NCI-H460): 5.4 µM
IC50 [3]: 7.5 µM

IC50 [1]: > 100 µM
SMILES: CC(C)(C)OC(=O)N[C@@H](Cc1ccccc1)C(=O)NCCI

SMILES: CCn1c(-c2nonc2N)nc2c(C#CC(C)(C)O)ncc(OC[C@H]3CCCNC3)c21 [GSK-690693]
IC50 (NCI-H460): 5.4 µM
IC50 [3]: 8.2 µM

IC50 [1]: 16.1 µM
SMILES: CC(C)(C)OC(=O)NN(Cc1ccccc1)C(=O)CI

Activity [4]: Active
SMILES: C=CC(=O)[C@H](Cc1ccccc1)NC(=O)OCc1cn(CCCCCCNC(=S)Nc2ccc(-c3c4ccc(=O)cc-4oc4cc(O)ccc34)c(C(=O)O)c2)nn1
